Earlier results on 2 compounds are cited in patent US12290493B2 (Advanced Respiratory Technologies, Inc., priority 2017, dated 2025).

SMILES strings stand for the structures.

In series [1] the test system is beta adrenergic receptors.
The conditions of series [2]: fraction of the l-epinephrine effect.

Regarding `CNCC(=O)c1ccc(O)c(O)c1` [adrenalone], the beta adrenergic activity result in series [1] is given as “little if any beta adrenergic activity”.

Take `CNC[C@H](O)c1ccc(O)c(O)c1` [d-epinephrine]: the “pressor effect relative to that of l-epinephrine” value in series [2] is “about one-fifteenth”.
